Experimental findings from ChEMBL document CHEMBL2034827, “Identification of novel antimalarial chemotypes via chemoinformatic compound selection methods for a high-throughput screening program against the novel malarial target, PfNDH2: increasing hit rate via virtual screening methods” (J Med Chem, 2012) are described below.

Assay [1] is described as follows: Inhibition of recombinant Plasmodium falciparum NDH2 expressed in Escherichia coli ANN0222 by spectrophotometry.
Assay [2] relates to Plasmodium falciparum. Description: Antimalarial activity against blood stage form of Plasmodium falciparum 3D7 infected in human erythrocytes after 48 hrs by SYBR Green-based fluorometry. The format is functional, organism-based. Particulars: 3D7, 48 h.

pIC50: −log10 of the molar value.

On to `CC(C)(Cc1cc(=O)c2ccccc2[nH]1)C1CCCCC1`, for which the pIC50 in assay [1] was 7.11; in assay [2] it was 5.42. On the same counts, the results for `CCn1cc(C(=O)NCc2ccc(Cl)cc2)c(=O)c2cc(F)c(N3CCN(C(=O)c4ccco4)CC3)cc21` are 6.53 and 5.30. As for `O=C1NC(=O)N(C2CCCCC2)C(=O)/C1=C/c1c(-c2ccccc2)[nH]c2ccccc12`, the pIC50 in assay [1] was 6.29; in assay [2] it was 5.25. For `CSc1nc2cc(Oc3ccc(Cl)c4ccccc34)c(Cl)cc2[nH]1`, in that order: 5.98 and 5.68. For `O=C(Nc1ccc(F)c(F)c1)C1CCC(Cn2cnc3ccccc3c2=O)CC1` (stereo unspecified), in that order: 5.87 and 5.68. On to `CCCCCCCCCCCCc1cc(=O)c2ccccc2n1O`, for which the pIC50 in assay [1] was 7.15.

Broadly, the pIC50 is −log10 of the IC50, conventionally taken in molar units.
